In the assay the target is butyrylcholinesterase (BuChE). The experiment in a line: modified Ellman photometric anti-cholinesterase assay. Format: biochemical. (In general: In Ellman's method for cholinesterases, released thiocholine reacts with DTNB.)

From article PMC6486817 (The Journal of organic chemistry, 2018) come the findings set out here.

As for `CCC[C@H](O)CCCCCC[C@H]1CCC[C@@H]2N[C@H](C)[C@H](OC(=O)/C=C/SC)C[C@H]12` [compound 1, lepadin I], half-maximal inhibition (IC50) required 3.1 µM. In other words, the single-digit micromolar range.

For orientation: IC50 means the point on the concentration scale where inhibition reaches its midpoint. A high value points to weaker potency in that assay.
